The assay deals with P388 leukemia ip, CD2F1 mice, survival T/C. Kind of assay: NCI In Vivo Anticancer Drug Screen. Data for tumor model P388 Leukemia (intraperitoneal) in CD2F1 (CDF1) mice. To be noted: endpoint: median survival time, higher = longer survival. The essentials:
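Mice carrying the transplanted tumor received test compound or vehicle. Survival was recorded in each group, and the value is the treated-group measurement divided by that of the vehicle-treated control group.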

Where [1] appears, read: dose: 100.0 mg/kg/injection, schedule: Q04DX002 (ip), vehicle: Klucel (hydroxypropylcellulose) (HPC).
Where [2] appears, read: dose: 200.0 mg/kg/injection, schedule: Q04DX002 (ip), vehicle: Klucel (hydroxypropylcellulose) (HPC).

“And” between values parts separate entries of the source, which are not always exact repeats. Equal entries are not always repeated. Inconclusive results and toxic doses are left out.

Turning to `CC(C)C(C=O)C(O)(C(F)(F)F)C(F)(F)Cl` (centres undefined), the T/C (dose: 12.5 mg/kg/injection, schedule: Q04DX003 (ip), vehicle: saline with Tween-80) is 100 % of control; the T/C (dose: 25.0 mg/kg/injection, schedule: Q04DX003 (ip), vehicle: saline with Tween-80) is 90 % of control; the T/C (dose: 50.0 mg/kg/injection, schedule: Q04DX003 (ip), vehicle: saline with Tween-80) was 95 % of control.
For `CC1CC2OC(/C=C/C=C/C=C\C=C\C=C\C(O)=C3\C(=O)C(C(C)C)N(C)C3=O)C(O)C2O1` (centres undefined), the T/C (dose: 3.0 mg/kg/injection, schedule: Q01DX005 (ip), vehicle: Klucel (hydroxypropylcellulose) (HPC)) is 120 % of control and 124 % of control.
In the case of `Cc1ccc(N=Nc2c(-c3ccccc3)nn(C(=S)S)c2-c2ccccc2)cc1`, the T/C is, setting by setting: (dose: 25.0 mg/kg/injection, schedule: Q04DX002 (ip), vehicle: Klucel (hydroxypropylcellulose) (HPC)) 101 % of control; (dose: 50.0 mg/kg/injection, schedule: Q04DX002 (ip), vehicle: Klucel (hydroxypropylcellulose) (HPC)) 105 % of control; under setting [1], 99 % of control; under setting [2], 103 % of control.
On to `O=C1CCS(=O)(=O)c2ccccc21`, for which the T/C (dose: 50.0 mg/kg/injection, schedule: Q01DX009 (ip), vehicle: saline with Tween-80) is 100 % of control.
On to `CCCCCCCCCCCCCCCC(=O)OCC(COP(=O)(O)OCC(COC(=O)CCCCCCCCCCCCCCC)OC(=O)CCCCCCCCCCCCCCC)OC(=O)CCCCCCCCCCCCCCC` (centres undefined), for which the T/C runs as follows: (dose: 50.0 mg/kg/injection, schedule: Q01DX009 (ip), vehicle: saline) 98 % of control; (dose: 100.0 mg/kg/injection, schedule: Q01DX009 (ip), vehicle: saline) 100 % of control; (dose: 200.0 mg/kg/injection, schedule: Q01DX009 (ip), vehicle: saline) 101 % of control.
`CN1CCC(=C(C#N)C(=O)O)CC1`: the T/C by setting is: (dose: 50.0 mg/kg/injection, schedule: Q01DX005 (ip), vehicle: saline) 103 % of control; (dose: 100.0 mg/kg/injection, schedule: Q01DX005 (ip), vehicle: saline) 95 % of control; (dose: 200.0 mg/kg/injection, schedule: Q01DX005 (ip), vehicle: saline) 103 % of control.
As to `CN=C(c1ccc(NC(=O)c2ccc(C(=O)Nc3ccc(C(=NC)N(C)C)cc3)c(Cl)c2)cc1)N(C)C`, the T/C by setting is: (dose: 0.75 mg/kg/injection, schedule: Q01DX005 (ip), vehicle: saline) 95 % of control; (dose: 1.5 mg/kg/injection, schedule: Q01DX005 (ip), vehicle: saline) 96 % of control; (dose: 3.0 mg/kg/injection, schedule: Q01DX005 (ip), vehicle: saline) 92 % of control; (dose: 3.12 mg/kg/injection, schedule: Q01DX005 (ip), vehicle: saline) 100 % of control.
`O=S1(=O)CCN(CCCc2ccccc2)CC1`: the T/C is, setting by setting: (dose: 50.0 mg/kg/injection, schedule: Q01DX009 (ip), vehicle: Klucel (hydroxypropylcellulose) (HPC)) 102 % of control; (dose: 100.0 mg/kg/injection, schedule: Q01DX009 (ip), vehicle: Klucel (hydroxypropylcellulose) (HPC)) 105 % of control; (dose: 200.0 mg/kg/injection, schedule: Q01DX009 (ip), vehicle: Klucel (hydroxypropylcellulose) (HPC)) 104 % of control.
As for `O=C(Nc1nncs1)C(F)(F)F`, the T/C reads like this: (dose: 12.5 mg/kg/injection, schedule: Q01DX009 (ip), vehicle: distilled water + Tween-80) 111 % of control; (dose: 12.5 mg/kg/injection, schedule: Q01DX009 (ip), vehicle: water) 109 % of control; (dose: 25.0 mg/kg/injection, schedule: Q01DX009 (ip), vehicle: distilled water + Tween-80) 118 % of control; (dose: 50.0 mg/kg/injection, schedule: Q01DX009 (ip), vehicle: distilled water + Tween-80) 163 % of control; (dose: 50.0 mg/kg/injection, schedule: Q01DX009 (ip), vehicle: water) 159 % of control.
Consider `CN(S(=O)(=O)CC(F)(F)F)S(=O)(=O)C(F)(F)F`, for which the T/C reads like this: (dose: 1.56 mg/kg/injection, schedule: Q01DX009 (ip), vehicle: saline) 120 % of control; (dose: 2.05 mg/kg/injection, schedule: Q01DX009 (ip), vehicle: saline) 93 % of control and 97 % of control; (dose: 3.12 mg/kg/injection, schedule: Q01DX009 (ip), vehicle: saline) 101 % of control and 102 % of control; (dose: 4.68 mg/kg/injection, schedule: Q01DX009 (ip), vehicle: saline) 102 % of control and 111 % of control; (dose: 6.25 mg/kg/injection, schedule: Q01DX009 (ip), vehicle: saline) 100 % of control.
For the compound `[CH2-]N(CC)CC.[CH2-]N(CC)CC.[Rh].[Rh].[Rh].[c-]1[c-][c-][cH-][c-]1.[c-]1[c-][c-][cH-][c-]1.[c-]1[c-][c-][cH-][c-]1`, the T/C was 108 % of control and 96 % of control (dose: 6.25 mg/kg/injection, schedule: Q04DX002 (ip), vehicle: saline); 113 % of control and 115 % of control and 91 % of control (dose: 12.5 mg/kg/injection, schedule: Q04DX002 (ip), vehicle: saline); 99 % of control and 103 % of control and 113 % of control (dose: 25.0 mg/kg/injection, schedule: Q04DX002 (ip), vehicle: saline); 104 % of control and 91 % of control (dose: 50.0 mg/kg/injection, schedule: Q04DX002 (ip), vehicle: saline).
For the compound `O=C(Nc1ccc(C2=NCCCN2)cc1)c1ccc(C(=O)Nc2ccc(C3=NCCCN3)cc2)nc1`, the T/C is, setting by setting: (dose: 2.5 mg/kg/injection, schedule: Q01DX009 (ip), vehicle: saline) 100 % of control; (dose: 5.0 mg/kg/injection, schedule: Q04DX003 (ip), vehicle: saline) 95 % of control; (dose: 10.0 mg/kg/injection, schedule: Q04DX003 (ip), vehicle: saline) 90 % of control.
In the case of `CCOC(=O)NCCCl`, the T/C (dose: 5.0 mg/kg/injection, schedule: Q01DX009 (ip), vehicle: saline with Tween-80) was 104 % of control; the T/C (dose: 10.0 mg/kg/injection, schedule: Q01DX009 (ip), vehicle: saline with Tween-80) was 107 % of control; the T/C (dose: 20.0 mg/kg/injection, schedule: Q01DX009 (ip), vehicle: saline with Tween-80) was 101 % of control; the T/C (dose: 50.0 mg/kg/injection, schedule: Q01DX008 (ip), vehicle: saline) was 95 % of control; the T/C (dose: 100.0 mg/kg/injection, schedule: Q01DX008 (ip), vehicle: saline) is 98 % of control; the T/C (dose: 200.0 mg/kg/injection, schedule: Q01DX008 (ip), vehicle: saline) is 107 % of control. The T/C (dose: 400.0 mg/kg/injection, schedule: Q01DX008 (ip), vehicle: saline) is 101 % of control.
On to `CC(=O)C(C)(CC#N)C(CC=O)CCC#N` (centres undefined), for which the T/C (dose: 60.0 mg/kg/injection, schedule: Q01DX005 (ip), vehicle: saline with Tween-80) was 111 % of control.
Consider `O=C1CCCC/C1=C/c1ccccc1`, for which the T/C runs as follows: (dose: 25.0 mg/kg/injection, schedule: Q01DX005 (ip), vehicle: distilled water + Tween-80 + alcohol) 98 % of control; (dose: 50.0 mg/kg/injection, schedule: Q01DX005 (ip), vehicle: distilled water + Tween-80 + alcohol) 98 % of control; (dose: 100.0 mg/kg/injection, schedule: Q01DX005 (ip), vehicle: distilled water + Tween-80 + alcohol) 100 % of control; (dose: 200.0 mg/kg/injection, schedule: Q01DX005 (ip), vehicle: distilled water + Tween-80 + alcohol) 98 % of control.
Take `COc1cc2c(cc1I)-c1c(cc(OC)c(OC)c1OC)CC[C@@H]2NC(C)=O`: the T/C runs as follows: (dose: 88.0 mg/kg/injection, schedule: Q01DX009 (ip), vehicle: saline with Tween-80) 118 % of control; (dose: 100.0 mg/kg/injection, schedule: Q01DX009 (ip), vehicle: saline sonified) 95 % of control; (dose: 100.0 mg/kg/injection, schedule: Q01DX009 (ip), vehicle: saline with Tween-80) 95 % of control; (dose: 100.0 mg/kg/injection, schedule: Q04DX003 (ip), vehicle: saline with Tween-80) 100 % of control; (dose: 200.0 mg/kg/injection, schedule: Q01DX009 (ip), vehicle: saline with Tween-80) 100 % of control; (dose: 200.0 mg/kg/injection, schedule: Q04DX003 (ip), vehicle: saline with Tween-80) 100 % of control. The T/C by setting is: (dose: 400.0 mg/kg/injection, schedule: Q01DX009 (ip), vehicle: saline with Tween-80) 104 % of control; (dose: 400.0 mg/kg/injection, schedule: Q04DX003 (ip), vehicle: saline with Tween-80) 90 % of control.
As to `O=C1C(Cl)=C(Cl)C(=O)N1c1ccc(Br)cc1Br`, the T/C by setting is: under setting [1], 105 % of control; under setting [2], 105 % of control; (dose: 400.0 mg/kg/injection, schedule: Q04DX002 (ip), vehicle: Klucel (hydroxypropylcellulose) (HPC)) 100 % of control.
In the case of `CCC/C(=N\NC(N)=NC)c1ccc2c(c1)Cc1cc(/C(CCC)=N/NC(N)=NC)ccc1-2`, the T/C runs as follows: (dose: 3.12 mg/kg/injection, schedule: Q04DX002 (ip), vehicle: saline with Tween-80) 96 % of control; (dose: 6.25 mg/kg/injection, schedule: Q04DX002 (ip), vehicle: saline with Tween-80) 100 % of control.

These data come from PubChem BioAssay AID330 (DTP/NCI, 2004).
